In patent publication US20100273203A1 (priority 2009, published 2010):
Where two headings read alike, the source gives them in different places.

How the values were obtained:
[1] = biological target: T1, CYP1A2 (Homo sapiens, UniProt P05177); conditions: read-out: IC50 for CYP marker reaction; P450-Glo marker reaction
T1 sequence (P05177 1-516): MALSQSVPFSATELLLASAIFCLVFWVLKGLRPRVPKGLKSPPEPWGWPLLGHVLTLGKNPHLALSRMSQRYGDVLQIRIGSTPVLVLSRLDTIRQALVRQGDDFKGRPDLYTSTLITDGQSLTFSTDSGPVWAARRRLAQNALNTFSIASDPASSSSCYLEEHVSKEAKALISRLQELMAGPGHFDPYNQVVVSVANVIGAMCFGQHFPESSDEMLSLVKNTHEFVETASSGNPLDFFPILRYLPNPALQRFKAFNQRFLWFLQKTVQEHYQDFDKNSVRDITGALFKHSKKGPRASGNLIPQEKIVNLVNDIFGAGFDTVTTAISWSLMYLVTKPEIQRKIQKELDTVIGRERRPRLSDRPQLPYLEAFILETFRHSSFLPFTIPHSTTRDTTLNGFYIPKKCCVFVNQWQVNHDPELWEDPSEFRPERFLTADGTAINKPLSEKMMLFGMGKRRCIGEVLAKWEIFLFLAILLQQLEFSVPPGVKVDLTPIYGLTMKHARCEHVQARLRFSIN

[2] = biological target: CYP2C9 (Homo sapiens, UniProt P11712); conditions: read-out: IC50 toward recombinant CYP2C9 activity; P450-Glo, 50 μM Luciferin H; racemic compounds
Sequence of CYP2C9 (P11712 whole entry): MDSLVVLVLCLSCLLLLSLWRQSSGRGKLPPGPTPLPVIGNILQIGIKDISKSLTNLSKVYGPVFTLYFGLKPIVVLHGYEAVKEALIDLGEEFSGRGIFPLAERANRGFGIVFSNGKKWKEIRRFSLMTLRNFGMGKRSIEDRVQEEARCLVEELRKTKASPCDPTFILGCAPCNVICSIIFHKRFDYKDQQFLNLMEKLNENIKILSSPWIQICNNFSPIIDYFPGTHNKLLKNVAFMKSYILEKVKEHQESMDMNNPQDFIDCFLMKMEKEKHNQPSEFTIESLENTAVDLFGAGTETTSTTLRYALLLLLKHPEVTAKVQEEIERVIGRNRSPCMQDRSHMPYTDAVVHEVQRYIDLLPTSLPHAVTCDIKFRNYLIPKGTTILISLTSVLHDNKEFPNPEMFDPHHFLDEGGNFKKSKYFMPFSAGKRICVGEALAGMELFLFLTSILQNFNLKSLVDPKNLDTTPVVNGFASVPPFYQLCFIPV
Method: Hydroxywarfarins were screened for inhibitory potential toward recombinant CYP2C9 using the Promega (Madison, Wis.) CY2C9 P450-Glo™ Assay using the manufacturer's protocol. These IC50 studies were analyzed on a PerkinElmer Victor^3V™ 1420 Multilabel Counter. Recombinant CYP2C9, 50 nM, was incubated with 50 μM Luciferin H, and six concentrations of each hydroxywarfarin from approximately 10 nM to 4 mM final concentration, as optimized for each compound. The appropriate volume of hydroxywarfarin stocks in 100% ethanol were added to each well prior to addition of the substrate and enzyme, and the ethanol was allowed to evaporate at room temperature to minimize solvent effects on CYP2C9 activity. A final DMSO concentration of 1% was present in the reactions due to the P450-Glo Luciferin H. The reaction was initiated upon addition of an NADPH regenerating solution (BD Biosciences) and quenched with a luciferase quench (Promega) at 30 min.

[3] = biological target: T2, CYP2C9*1 (Homo sapiens, UniProt P11712); conditions: read-out: IC50 for CYP marker reaction; P450-Glo marker reaction
[4] = biological target: T2, CYP2C9*1; conditions: for Ki / Mechanism of inhibition: S-warfarin metabolism, 7-hydroxywarfarin formation as marker
Method: (§1) For each hydroxywarfarin, at least 4 independent experimental replicates were performed.
(§2) MS/MS experimental conditions was used as described previously (6).
(§3) The most probable inhibition mechanism for recombinant CYP2C9 and human liver microsome reactions was identified using DynaFit ver. 3.28 (Biokin, Ltd) (20). Data from each set of hydroxywarfarin experiments were fit to traditional reversible inhibition mechanisms (competitive, uncompetitive, noncompetitive, or mixed). The respective kinetic parameters (Ki and Ki′) were set as variables, while the kinetic parameters (Vmax and Km) were constants based on values obtained from uninhibited reactions. The most probable mechanism was then identified using the Akaike Information Criterion (AICc) for model discrimination (21).

[5] = biological target: CYP2C9 present in the human liver microsomes (Homo sapiens, UniProt P11712); conditions: for Ki / Mechanism of inhibition: S-warfarin metabolism, 7-hydroxywarfarin formation as marker
Sequence of CYP2C9 present in the human liver microsomes (P11712 whole entry): as above
Method: as §1, §2, §3

[6] = tested on: plasma proteins; conditions: cited from earlier work
[7] = biological target: T3, CYP3A4 (Homo sapiens, UniProt P08684); conditions: read-out: IC50 for CYP marker reaction; P450-Glo marker reaction
T3 sequence (P08684 whole entry): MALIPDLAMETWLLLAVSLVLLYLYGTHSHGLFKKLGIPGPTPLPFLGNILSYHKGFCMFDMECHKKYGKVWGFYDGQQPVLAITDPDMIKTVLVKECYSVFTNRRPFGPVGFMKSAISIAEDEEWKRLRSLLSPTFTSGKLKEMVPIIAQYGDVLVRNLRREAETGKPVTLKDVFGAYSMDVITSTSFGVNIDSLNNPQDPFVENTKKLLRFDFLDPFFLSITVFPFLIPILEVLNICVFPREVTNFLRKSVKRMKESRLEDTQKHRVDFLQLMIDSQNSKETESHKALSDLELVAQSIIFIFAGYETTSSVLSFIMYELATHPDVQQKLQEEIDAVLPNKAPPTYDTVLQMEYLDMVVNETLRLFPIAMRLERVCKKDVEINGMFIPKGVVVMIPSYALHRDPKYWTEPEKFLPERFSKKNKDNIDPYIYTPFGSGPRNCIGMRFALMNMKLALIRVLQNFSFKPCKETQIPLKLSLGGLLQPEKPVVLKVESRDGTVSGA

[8] = LC-MS/MS urinary metabolic profile of patients receiving warfarin; conditions: for % R / % S (proportion in (S)-enantiomeric form) / % conjugated (proportion glucuronidated) / urinary concentration: urine; for urinary concentration: free and conjugated; for share of (S)-WAR P450 metabolites measured: three urine specimens
Text: All chemicals used in this study were of at least reagent grade. Unless otherwise specified, all chemicals and reagents were purchased from either Sigma-Aldrich (St. Louis, Mo.) or Thermo Fisher Scientific (Waltham, Mass.). […] Ethyl alcohol (100%) was purchased from AAPER (Shelbyville, Ky.). Re-combinant CYP2C9*1, CYP3A4, CYP1A2, and CYP2C19 were expressed in baculovirus-infected insect cells and purchased from BD Biosciences (San Jose, Calif.). Commercially available urine specimens from three females (F84, F85, and F87) were provided by the Emergency Response and Air Toxicants Branch, Division of Laboratory Science National Center for Environmental Health Centers for Disease Control and Prevention (DeKalb County, Ga.). Patient studies were conducted under IRB-approved protocols, and all patients signed informed consent documentation.
This analytical phase was accomplished by reverse-phase HPLC using a 4.6 mm×150 mm C18 Zorbax Eclipse 5 μm XDB-C18 column provided by Agilent (Santa Clara, Calif.). The operating temperature was 40° C., and the sample injection volume was 5.0 μL. HPLC mobile phases consisted H2O (0.1% acetic acid v/v) (A) and methanol (0.1% acetic acid v/v) (B). The flow rate was 1 mL/min. […] The total run time per sample was 10 min. Specific MS/MS experimental conditions used in this study are noted in Table 1.
To determine the relative abundance of the (R)-and (S)-enantiomers of each metabolite, a 4.6 mm×25 cm Chirobiotic V5 μm column supplied by Supelco (Bellefonte, Pa.) was incorporated during the second analytical phase. Mobile phases consisted of H2O (0.1% acetic acid v/v) (A) and acetonitrile (0.1% acetic acid v/v) (B) with a flow rate of 800 μL/min. Enantiomeric separations were accomplished under isocratic conditions (80% A and 20% B). The sample injection volume was 15.0 μL. Enantiomeric MS/MS analyses were performed in negative ion mode by electrospray ionization (ESI) using a Turbo IonSpray source. A total run time of 20 min was required for adequate resolution. Specific MS/MS experimental conditions used in this study are noted in the Table 2.
Each response was normalized to that of the internal standard, 7-hydroxycoumarin (10 μM). […] Measurements of these three metabolites were calculated by taking the difference of the amount measured in the first analytical phase, which contained both (R)-and (S) isomers from the amount of the (S)-isomer measured in the second analytical phase (eq 3). Glucuronidated metabolites were measured by incubating 250 μL of urine with 2000 units of GUS in 100 mM sodium acetate buffer, pH 5.0. The final volume for each of these reactions was 1 mL. Control reactions omitting GUS were included with each sample set. Reactions were incubated overnight at 37° C., after which they were stored at −80° C. Immediately before analysis, both samples were diluted with an equal volume of ethanol containing 7-hydroxycoumarin (10 μM final concentration). The difference between GUS-treated samples and controls represented the amount of glucuronidated metabolites present.

[9] = biological target: UGT1A10 (Homo sapiens, UniProt Q9HAW8); conditions: glucuronidation; racemic OHWars
Sequence of UGT1A10 (Q9HAW8 26-530): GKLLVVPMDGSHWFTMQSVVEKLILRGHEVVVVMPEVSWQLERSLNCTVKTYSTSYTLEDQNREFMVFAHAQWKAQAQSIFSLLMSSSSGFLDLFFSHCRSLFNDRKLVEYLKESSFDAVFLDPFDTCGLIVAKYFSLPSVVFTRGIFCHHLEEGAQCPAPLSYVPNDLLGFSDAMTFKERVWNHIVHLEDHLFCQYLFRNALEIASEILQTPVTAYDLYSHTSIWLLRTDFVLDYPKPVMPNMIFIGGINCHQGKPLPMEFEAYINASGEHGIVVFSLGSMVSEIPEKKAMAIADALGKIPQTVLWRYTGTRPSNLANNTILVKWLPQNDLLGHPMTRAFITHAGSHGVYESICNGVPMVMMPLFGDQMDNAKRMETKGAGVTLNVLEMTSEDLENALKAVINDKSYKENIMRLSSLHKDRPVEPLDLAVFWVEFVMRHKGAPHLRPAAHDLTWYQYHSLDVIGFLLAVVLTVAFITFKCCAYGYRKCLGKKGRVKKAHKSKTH
Text: The characterization of hepatic and extrahepatic glucuronidation may be made based on glucuronidation studies with 100 commercially available HLM and 100 intestinal microsomal preparations available in our laboratory. […] Both racemic mixtures and separated R and S enantiomers may be assayed. […] Activities of extrahepatic (UGT1A8 and UGT1A10) and hepatic (UGT1A1, UGT1A3, and UGT1A9) isoforms may be compared to that of their respective microsomal preparations, and assign the contribution of specific UGTs to product formation by the human samples.

[10] = biological target: CYP3A7 (Homo sapiens, UniProt P24462); assay: Steady-state metabolism of R- and S-warfarin by recombinant CYP3A7
Sequence of CYP3A7 (P24462 whole entry): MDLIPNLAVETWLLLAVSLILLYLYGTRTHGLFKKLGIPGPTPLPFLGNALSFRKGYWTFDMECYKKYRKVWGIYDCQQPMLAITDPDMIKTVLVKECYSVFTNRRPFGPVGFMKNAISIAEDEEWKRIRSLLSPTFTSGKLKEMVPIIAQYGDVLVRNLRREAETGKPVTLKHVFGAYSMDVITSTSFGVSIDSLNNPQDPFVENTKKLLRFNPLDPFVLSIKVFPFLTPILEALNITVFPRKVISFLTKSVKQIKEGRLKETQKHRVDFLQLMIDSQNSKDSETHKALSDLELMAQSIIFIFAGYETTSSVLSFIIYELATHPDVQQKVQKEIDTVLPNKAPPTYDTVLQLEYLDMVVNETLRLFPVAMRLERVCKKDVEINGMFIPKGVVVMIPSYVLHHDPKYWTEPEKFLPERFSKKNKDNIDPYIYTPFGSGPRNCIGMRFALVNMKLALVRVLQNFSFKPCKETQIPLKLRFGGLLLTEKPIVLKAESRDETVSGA
Method: (§4) Reactions were initiated upon addition of an NADPH regenerating system [2 μU μL-1 glucose 6-phosphate dehydrogenase, 10 mM glucose 6-phosphate, 2 mM MgCl2, 1 mM NADP^+]. […] The quenched reactions were centrifuged and the resulting supernatant containing substrate and products resolved and quantified by UPLC-MS/MS. Each experiment was performed in at least 4 independent experimental replicates.
(§5) The flow rate was constant at 250 μL/min. […] Electrospray conditions were as follows: spray voltage of 4500 V, sheath gas pressure 45, auxiliary gas pressure 20, and collision energy of 15-15 eV (compound specific).
(§6) Final metabolite concentrations were calculated from the ratio of metabolite area to internal standard area in the sample and compared to calibration curves as determined from the UPLC-MS/MS method. All compounds were quantified relative to authentic standards. The resulting kinetic data were analyzed with GraphPad Prism 5® software. Non-linear regression analysis was used to fit steady-state data to the Michaelis-Menten equation to determine the Vmax and Km parameters.

[11] = biological target: T3, CYP3A4; assay: Steady-state metabolism of R- and S-warfarin by recombinant CYP3A4
Method: as §4, §5, §6

[12] = Estimated unbound levels in plasma of long-term warfarin therapy patients; conditions: estimated from literature data
[13] = 10-hydroxywarfarin formation, 37° C, pH 7.4

For `CC(=O)CC(c1ccc(O)cc1)c1c(O)c2ccccc2oc1=O` (stereo not drawn) [4′-OH-WAR, 4′-hydroxywarfarin], the IC50 [1] was > 3000 µM, the IC50 [2] was 9.3 µM and the IC50 [3] was 8.4 µM. The Ki [4] was 17 µM, the Mechanism of inhibition [4] was “Mixed” and the Ki ([4]; mixed inhibition) was 133 µM. For the same molecule, the Ki [5] was 17 µM, the Mechanism of inhibition [5] was “Competitive” and the “plasma protein binding affinity relative to warfarin” value [6] was “affinity comparable to warfarin”. For the same molecule, the IC50 [7] was 39 µM, the “% R” value ([8]; patient F84) was 64% and the “% S (proportion in (S)-enantiomeric form)” value ([8]; patient F84) was 56%. The “% conjugated (proportion glucuronidated)” value ([8]; patient F84) was 47%, the urinary concentration ([8]; patient F84) was 140 nM and the “% R” value ([8]; patient F85) was 25%. For the same molecule, the “% S (proportion in (S)-enantiomeric form)” value ([8]; patient F85) was 75%, the urinary concentration ([8]; patient F85) was 94 nM and the “% R” value ([8]; patient F87) was 30%. The “% S (proportion in (S)-enantiomeric form)” value ([8]; patient F87) was 70% and the urinary concentration ([8]; patient F87) was 20 nM.
`CC(=O)CC(c1ccccc1)c1c(O)c2cc(O)ccc2oc1=O` (stereo not drawn) [6-OH-WAR, 6-hydroxywarfarin] gave an IC50 [1] of 1400 µM, an IC50 [2] of 47 µM and an IC50 [3] of 44.3 µM. For the same molecule, the Ki [4] was > 170 µM, the Mechanism of inhibition ([4]; listed as 6-hydroxywarfarin) was “no inhibition was observed” and the Mechanism of inhibition ([4]; listed as 6OHWAR) was “None”. For the same molecule, the Ki [5] was 167 µM, the Mechanism of inhibition [5] was “Competitive” and the “Ki, fold higher than the marker Km” value ([5]; human liver microsomes) was “approximately 32 fold”. The Km [9] was 399 ± 130 µM, the Vmax [9] was 3.1 ± 0.4 nmol/mg protein/min and the “plasma protein binding affinity relative to warfarin” value [6] was “three- to four-fold lower affinity”. For the same molecule, the IC50 [7] was > 500 µM, the “% R” value ([8]; patient F84) was 65% and the “% S (proportion in (S)-enantiomeric form)” value ([8]; patient F84) was 35%. The “% conjugated (proportion glucuronidated)” value ([8]; patient F84) was 35%, the urinary concentration ([8]; patient F84) was 560 nM and the “% R” value ([8]; patient F85) was 69%. For the same molecule, the “% S (proportion in (S)-enantiomeric form)” value ([8]; patient F85) was 31%, the “% conjugated (proportion glucuronidated)” value ([8]; patient F85) was 15% and the urinary concentration ([8]; patient F85) was 1124 nM. For the same molecule, the “% R” value ([8]; patient F87) was 62%, the “% S (proportion in (S)-enantiomeric form)” value ([8]; patient F87) was 38% and the “% conjugated (proportion glucuronidated)” value ([8]; patient F87) was 12%. The urinary concentration ([8]; patient F87) was 204 nM.
With `CC(=O)C[C@@H](c1ccccc1)c1c(O)c2ccccc2oc1=O` [S-warfarin, (S) warfarin, reference compound] the Km ([10]; 4′-hydroxywarfarin formation) was 2280 µM, the Vmax ([10]; 4′-hydroxywarfarin formation) was 321 pmol product/min/nmol P450 and the Km ([10]; 10-hydroxywarfarin formation) was 81 µM. For the same molecule, the Vmax [10, 13] was 22 pmol product/min/nmol P450, the Km ([11]; 4′-hydroxywarfarin formation) was 27 µM and the Vmax ([11]; 4′-hydroxywarfarin formation) was 64 pmol product/min/nmol P450. For the same molecule, the Km ([11]; 10-hydroxywarfarin formation) was 26 µM, the Vmax [11, 13] was 76 pmol product/min/nmol P450 and the “mean unbound concentration in human plasma (estimated)” value [12] was 2.7 ng/mL.
With `CC(=O)C[C@@H](c1ccccc1)c1c(O)c2cccc(O)c2oc1=O` [(S)-8-OH-WAR, (S) 8-hydroxywarfarin] the “share of (S)-WAR P450 metabolites measured” value [8] was 4-20%.
In the case of `CC(=O)C[C@@H](c1ccccc1)c1c(O)c2ccc(O)cc2oc1=O` [(S)-7-OH-WAR, (S) 7-hydroxywarfarin], the “share of (S)-WAR P450 metabolites measured” value [8] is reported as 61-71%.
For `CC(=O)C(O)C(c1ccccc1)c1c(O)c2ccccc2oc1=O` (stereo not drawn) [10-OH-WAR, 10-hydroxywarfarin], the IC50 [2] was 1.6 µM, the IC50 [3] was 2 µM and the Ki [4] was 0.94 µM. For the same molecule, the Mechanism of inhibition [4] was “Competitive”, the “Ki, fold lower than the Km for S-warfarin” value ([4]; recombinant CYP2C9) was “approximately 2.5 fold” and the Ki [5] was 2.2 µM. The Mechanism of inhibition [5] was “Competitive”, the “Ki, fold lower than the microsomal Km for S-warfarin” value ([5]; human liver microsomes) was 2.4 fold and the “mean unbound concentration in human plasma (estimated)” value [12] was 5.8 ng/mL. For the same molecule, the “detection in urine specimens” value ([8]; any of the three specimens) was “not detected”.
